These results are taken from patent publication US10456434B2, “Extracts obtained from cell line cultures from plants belonging to the Oleaceae family (e.g. Syringa vulgaris), their preparation and use” (CRODA ITALIANA S. P. A., priority 2005, dated 2019).

Experiment [1] is described as follows: Fe2+ induced lipid peroxidation (thiobarbituric acid). The format is biochemical. The following applies: mean of 6 independent assays. The text has this:
(§1) Syringa vulgaris Extracts 1 and 2, prepared as described in examples 1 and 2, have been used to assess in vitro antioxidant action with specific oxygen radical generating systems such as the superoxide anion (O2^−), the hydroxyl radical (HO), the peroxynitrite radical (ONOO^−) and the inhibition of lipid peroxidation. The superoxide anion has been measured by a chemiluminescent assay based on the hypoxanthine (HPX)/xanthine oxidase (XOD) reaction using the Lumimax Superoxide Anion Detection Kit (Stratagene, La Jolla, Calif., USA) and following the manufacturer's instructions. Hydroxyl radical scavenger activity has been measured by means of the Fenton reaction for the production of hydroxyl radicals and chemiluminescent dosage (using a Victor^3 chemiluminometer, Wallac, Finland) with luminol. Peroxynitrite ions have been determined by means of dosage with a spontaneous generator of peroxynitrites (3-morpholinosidnonimine hydrochloride; SIN-1) and a stable reagent for the nitroxyl ions (2-(4-carboxyphenyl)-4,4,5,5-tetramethylimidazoline-1-oxyl-3-oxide potassium salt PTIO spin trap) then dosed by means of electron spin resonance (ESR) using a. Nippon Denshi JES-FR30. […].
(§2) Extract 1 and Extract 2 listed in Table are derived from Syringa vulgaris cell cultures. In said extracts, verbascoside is present at 0.82% and 35% by weight respectively. […]

Experiment [2] in a line: Hydroxyl radical scavenger activity (Fenton reaction, luminol chemiluminescence). The following applies: mean of 6 independent assays. The format is biochemical.
Excerpt: as §1, §2

Molecules are shown by their SMILES.

For `C[C@@H]1O[C@@H](O[C@@H]2[C@@H](O)[C@H](OCCc3ccc(O)c(O)c3)O[C@H](CO)[C@H]2OC(=O)/C=C/c2ccc(O)c(O)c2)[C@H](O)[C@H](O)[C@H]1O` [Verbascoside, b-(3,4-dihydroxyphenyl)-ethyl-O-α-L-ramnopyranosyl (1″-3′)-b-D-(4′-O-caffeoil)-glucopyranoside], the “Lipid peroxidation (IC50)” value in experiment [1] was 7.4 µg/mL. Moreover, in experiment [2], the “Hydroxyl radial (IC50)” value amounted to 2.2 µg/mL.
